Measured values as given in patent US10822318B2, “Lactone-based probes and methods of use thereof” (REGENTS OF THE UNIVERSITY OF MINNESOTA, priority 2017, dated 2020).

Experiments:
PBP2x and PBP2b = experiment: Dual-labeling experiments, 7FL followed by 8T; assay type: cell-based, S. pneumoniae; details: both 5 μg/mL for 20 minutes
Protocol: S. pneumoniae E193 (Δpbp1b) cells were grown in BHI broth at 37° C. in an atmosphere of 5% CO2 to reach an OD620 of 0.2-0.25. Cells from 1.5 ml of culture were harvested by centrifugation (16,100×g for 2 min at RT) and washed with 1 ml of PBS, pH 7.4. Cell pellets were resuspended in 50 μl of PBS containing 5 μg/ml lactone-L-Phe-FL (7FL) and incubated at RT for 20 min. Cells were then washed with 1 ml PBS prior to suspension in 50 μl of 5 μg/ml solution of Lac-D-Phe-TAMRA (8T) in PBS. After incubation for 20 min at RT, cells were washed and resuspended in 100 μl of PBS containing 10 mg/ml of lysozyme. Cell lysis and sample preparation for SDS PAGE was followed as described earlier.

PBPs = experiment: Gel-based analysis of PBP labeling by β-lactone probes in S. pneumoniae cells; assay type: cell-based; details: S. pneumoniae whole cells, probe 5 μg/ml, 20 min
Protocol: Strain IU1945, an unencapsulated derivative of serotype 2 S. pneumoniae strain D39, was grown statically in brain heart infusion (BHI) medium in 100×17 mm tubes by incubation in an atmosphere of 5% CO2 at 37° C. to an OD620 of ˜0.2. For labeling experiments, overnight cultures that were still in exponential phase (OD620=0.1-0.4) were diluted to OD620=0.002-0.004 and grown as above. Samples with OD620=0.15-0.20 were utilized in labeling experiments conducted as previously described (Kocaoglu, O, et al. (2013) Curr Protoc Chem Biol 5, 239), and summarized as follows: Cell pellets from 1.5 ml of S. pneumoniae cultures were harvested by centrifugation (16,100×g for 2 min at RT) and washed with phosphate buffered saline (PBS; pH 7.4). […] The protein concentration was measured by NanoDrop 1000 Spectrophotometer (Thermo Scientific) or NanoPhotometer P330 (IMPLEN). […] The protein bands were separated by gel electrophoresis for 1.5 h at 180 V, 400 mA, 60 W. The gel was rinsed with distilled water three times before fluorescence scanning. […]
After SDS-PAGE, labeled proteins were visualized at 50-μm resolution in gels using a Typhoon 9210 gel scanner (Amersham Biosciences) with 580-nm bandpass filter for TAMRA, 526-nm short-pass filter for fluorescein and BODIPY FL, and 670-nm bandpass filter for BODIPY 650/665. All gel images were analyzed using ImageJ software (National Institutes of Health). […]

Row | Substance | PBP visualized in dual labeling (PBP2x and PBP2b) | PBPs labeled (gel-based labeling profile) (PBPs)
1 | (2S, 3R)-β-lactone-D-Phe-TAMRA [Probe 8T] | PBP2b | PBP1b, PBP2x and PBP2b
2 | (2S,3R)-β-lactone-L-Phe-fluorescein [Probe 7FL] | PBP2x | only PBP1b and PBP2x
